Experimental data from patent US9511061B2, “Incontinence treatment methods” (IXALTIS, priority 2005, dated 2016).

Tests used:
adrenergic receptors β = experiment: Affinity for adrenergic receptors; format: binding
human 5-HT2C receptor = human 5-HT2C receptor (Homo sapiens (Human), UniProt P28335); experiment: Cellular functional test ([35S]GTPγS binding) on cloned human 5-HT2C receptor in CHO cells; format: cell-based
Description: The agonistic and antagonistic activities of the compound A were evaluated in vitro on the human 5-HT2C receptor expressed in Chinese hamster ovarian cells (CHO cells) in a range of concentrations comprised between 1 nM and 100 μM by quantitation of the binding of the specific ligand of the receptor, [^35S]GTPγS, according to a method adapted from Adlersberg (2000) and from Cussac (2002).

adrenergic receptors α1 = experiment: Affinity for adrenergic receptors; format: binding
[1] = system: recapture of serotonine (5-HT) as compared with that of norepinephrine (NE); conditions: selectivity, Scatton 1988; cited from earlier work
[2] = system: recapture of serotonin as compared with that for dopamine (DA); conditions: selectivity, Scatton 1988; cited from earlier work
[3] = system: anaesthetized female rabbits under conditions of vesical irritation; experiment: Activity of the striated anal sphincter (EMG-SAS) and vesical capacity in anaesthetized female rabbits under vesical irritation by diluted acetic acid; format: in vivo, rabbit
From the text: The effect of 4-[(2-naphthalenyl)-methoxy]-piperidine (compound A) and of its solvent (NaCl 0.9%) on the electromyographic activity of the striated anal sphincter (EMG-SAS), used as a marker of the activity of the urethral sphincter, and on the vesical capacity (VC) was studied in vivo in anaesthetized female rabbits under conditions of vesical irritation induced by intra-vesical perfusion of diluted acetic acid (Perez Martinez et al., 2006 and Haab et al., 2006). […] 16 New Zealander female white rabbits (2.5-3.5 kg) anaesthetized by intramuscular injection of a mixture of ketamin (25 mg/kg) and sylazin (10 mg/kg), were subject to cystostomy. After laparotomy by median incision, a catheter was introduced at the dome of the bladder and held in place by a purse suture. A multiperforable plug was placed at the end of the catheter, and then the catheter was internalized subcutaneously and attached at the abdomen with a silk ligature. 3 days after cystotomy, cystomanometry was performed on animals anaesthetized with halothane (2-3%). A T-tube was connected at the multiperformable plug, and then connected to a pressure sensor (Letica, PanLab) and to a micro-pump allowing perfusion of the bladder (Razel 99, Scientific Instruments). […] The micturitional profile was continuously recorded by means of a data acquisition system (PowerLab 4/25, PanLab) and the different urodynamic parameters, including vesical capacity (VC), were determined. […] The electric signal, amplified and filtered (bandwidth 1 Hz-5 kHz) was continuously recorded by means of the data acquisition system. EMG-SAS was measured during the phase for filling the bladder, in order to get rid of the parasitics related to perineal movements occurring during micturition.
A catheter was implanted at the vein of the ear in order to allow administration of compound A or of its solvent (NaCl 0.9%) in a volume of 1 mL. […] During a stabilization period (SP) of at least 60 minutes, during which the bladder was perfused, in order to induce regular micturitional cycles, two consecutive doses (1 and 3 mg/kg of compound A or of solvent were administered intravenously, at intervals of 40 minutes. For each of the tested doses, the effects of the compound A and of its solvent on EMG-SAS and on VC were expressed as a percentage of the stabilization period (mean±standard error of mean). During the stabilization period, the parameters obtained in both experimental groups (compound A and solvent) were the same (p>0.05; Kruskal-Wallis test): for EMG-SAS, 1.76±1.04 (n=8) and 1.41±0.59 activity peaks/minute (n=8), for the compound A and its solvent and for VC, respectively, 21.63±4.92 (n=8) and 18.31±2.90 mL (n=8), for the compound A and its solvent respectively. […]

[4] = system: anaesthetized female rats under vesical irritation conditions; experiment: Vesical capacity in anaesthetized female rats under vesical irritation by diluted acetic acid; format: in vivo, rat; conditions: 2 mg/kg i.v., mean±SEM, n=8
Description: After laparotomy, a bursa was formed at the dome of the bladder, and then a catheter was introduced and ligatured at this bursa. A catheter was implanted at the jugular vein in order to allow administration of the compound A or its solvent. Cystomanometry was performed on the animals placed beforehand on a heating plate, in order to maintain their body temperature around 37° C. A 3-way valve was positioned at the end of the vesical catheter and then connected to a pump allowing perfusion of the bladder (Model “11” plus, Harvard Apparatus) and to a pressure sensor (MX 860/866 Novatrans, Medex Medical). Diluted acetic acid (0.3%) held at room temperature was perfused into the bladder (3 mL/h) in order to induce successive micturitions under vesical irritation conditions. The micturitional profile was continuously recorded by means of a data acquisition system (MacLab/8^e, AD Instruments) and the different urodynamic parameters, including vesical capacity (VC) were determined. […] The compound A (2 mg/kg) or its solvent were then injected intravenously in a volume of 1 mL administered within 5 minutes by means of a syringe pump (Model A-99, Fisher Bioblock Scientific). The effects of the compound A and of its solvent on VC were evaluated at times, 20, 40 and 60 minutes after administration and expressed as a percentage of variation of the basal value (mean±standard error of mean). In both experimental groups (compound A and solvent), the basal values of VC were the same (p>0.05; analysis of variance): 0.045±0.005 mL and 0.042±0.006 mL for the solvent (n=11) and the compound A (n=8), respectively. […] (see compound A group (n=8) in FIG. 2).

adrenergic receptors α2 = experiment: Affinity for adrenergic receptors; format: binding
muscarinic receptors = experiment: Affinity for muscarinic receptors; format: binding
human detrusor muscle = experiment: Electrically stimulated human detrusor muscle strips in vitro
Description: The effect of the compound A and of its solvent (Krebs solution) was tested in vitro on bladder strips taken on two male patients within the scope of a radical cystectomy because of an urothelial carcinoma. The strips were mounted in baths with isolated organs, containing a Krebs solution, heated to 37° C. and oxygenated with carbogen (95% O2 and 5% CO2). After a 60 minute stabilization period, the viability of the strips was tested by performing a contraction with 80 mM KCl. After 30 minutes of wash-out and stabilization, the strips were submitted to electric field stimulation, in order to cause neurogenic contractions. The electric stimulation parameters used were the following: frequency: 30 Hz, maximum voltage, pulse duration 0.1 ms, 5 second pulse trains every 100 s. After stabilization of the neurogenic response (about 30 minutes after beginning of the electric stimulation), a range of cumulative concentration-response curves for the compound A was obtained between 0.01-100 μM. It was shown that from 10 μM, the compound A inhibits in a concentration-dependent way, the contractile response of the detrusor muscle strips to electric stimulation with inhibition percentages of 20.1±4.7% at 10 μM, 41.7±5.2% at 30 μM and 80.8±6.8% at 100 μM. Tested under the same conditions, the solvent of the compound A has an inhibiting effect of the order of 10% on the contractions of the detrusor muscle.

5-HT4e = 5-HT4e (Homo sapiens (Human), UniProt Q13639); experiment: Binding test on cloned human serotoninergic receptor
Description: (§1) The affinity of the compound A was evaluated in vitro on 8 cloned human serotoninergic receptors by measuring the specific binding of the ligands to the corresponding receptors according to methods adapted from Mulheron (1994), Bryant (1996), Choi (1994), Hope (1996), Mialet (2000), Rees (1994) and Shen (1993).

5-HT5A = 5-HT5A (Homo sapiens (Human), UniProt P47898); experiment: as above
Description: as §1

5-HT2B (agonist) = 5-HT2B (agonist) (Homo sapiens (Human), UniProt P41595); experiment: as above; conditions: 5-HT2B (agonist) site
Description: as §1

5-HT2A (agonist) = 5-HT2A (agonist) (Homo sapiens (Human), UniProt P28223); experiment: as above; conditions: 5-HT2A (agonist) site
Description: as §1

5-HT7 = 5-HT7 (Homo sapiens (Human), UniProt P34969); experiment: as above
Description: as §1

5-HT1A = 5-HT1A (Homo sapiens (Human), UniProt P08908); experiment: as above
Description: as §1

5-HT2C (agonist) = 5-HT2C (agonist) (Homo sapiens (Human), UniProt P28335); experiment: as above; conditions: 5-HT2C (agonist) site
Description: as §1

5-HT3 = 5-HT3 (Homo sapiens (Human), UniProt P46098); experiment: as above
Description: as §1

[5] = system: 5-HT7 receptor in isolated rat bladder; experiment: Potentialization by serotonin of the neurogenic response of isolated rat bladder (5-HT7 antagonistic functional test); conditions: after incubation with 10 μM of compound A; n=6; solvent 52.7±7.3%
Description: The effect of the compound A and of its solvent (Krebs solution) on the potentialization by serotonin of the neurogenic response of isolated rat bladder was studied in vitro. Strips of detrusor muscle taken from Wistar female rats (250-300 grams) were mounted in baths with isolated organs, containing a Krebs solution, heated to 37° C. and oxygenated with carbogen (95% O2 and 5% CO2). After a 60 minute stabilization period, contraction with 80 mM KCl was achieved. After 30 minutes of wash-out and stabilization, the strips were submitted to electric field stimulation, in order to cause neurogenic contractions. The electric stimulation parameters used were the following: frequency: 5 Hz, maximal voltage, pulse duration 0.3 ms, 10 second pulse trains every 60 s. The compound A and its solvent are incubated for 60 minutes, 30 minutes without electric stimulation and 30 minutes during the phase for stabilizing the neurogenic response. After stabilization, a 5-HT cumulative concentration-response curve range was achieved between 0.01-100 μM.

[6] = 1 mg/kg intravenously, relative to stabilization period

Chain of human 5-HT2C receptor (P28335 33-458): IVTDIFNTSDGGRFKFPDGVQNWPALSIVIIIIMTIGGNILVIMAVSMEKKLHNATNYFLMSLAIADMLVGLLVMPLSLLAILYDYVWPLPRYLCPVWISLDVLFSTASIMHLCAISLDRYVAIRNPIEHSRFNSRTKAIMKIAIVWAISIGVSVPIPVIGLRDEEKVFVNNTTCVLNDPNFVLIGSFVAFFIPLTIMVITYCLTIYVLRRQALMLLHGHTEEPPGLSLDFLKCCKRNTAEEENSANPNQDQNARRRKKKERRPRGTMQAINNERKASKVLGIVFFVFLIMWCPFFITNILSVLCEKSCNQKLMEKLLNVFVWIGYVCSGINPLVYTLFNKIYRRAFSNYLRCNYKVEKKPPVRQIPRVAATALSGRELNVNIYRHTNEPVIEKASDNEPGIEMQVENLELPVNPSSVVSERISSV
Chain of 5-HT7 (P34969 whole entry): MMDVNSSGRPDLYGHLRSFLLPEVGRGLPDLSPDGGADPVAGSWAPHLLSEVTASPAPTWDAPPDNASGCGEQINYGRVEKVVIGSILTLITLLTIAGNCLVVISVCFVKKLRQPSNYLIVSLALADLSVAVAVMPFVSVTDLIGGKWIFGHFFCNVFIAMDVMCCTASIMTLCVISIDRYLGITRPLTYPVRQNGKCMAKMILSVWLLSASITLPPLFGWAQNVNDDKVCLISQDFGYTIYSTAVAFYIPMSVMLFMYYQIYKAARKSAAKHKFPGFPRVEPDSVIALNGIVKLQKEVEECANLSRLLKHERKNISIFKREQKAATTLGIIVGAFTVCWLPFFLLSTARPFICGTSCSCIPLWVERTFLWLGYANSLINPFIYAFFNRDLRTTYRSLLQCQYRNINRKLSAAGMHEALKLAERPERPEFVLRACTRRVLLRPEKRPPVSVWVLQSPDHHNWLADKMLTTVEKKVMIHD
Chain of 5-HT2C (agonist) (P28335 33-458): as the sequence (P28335 33-458) above
Chain of 5-HT4e (Q13639 other isoform, or with tags, fused parts or gaps): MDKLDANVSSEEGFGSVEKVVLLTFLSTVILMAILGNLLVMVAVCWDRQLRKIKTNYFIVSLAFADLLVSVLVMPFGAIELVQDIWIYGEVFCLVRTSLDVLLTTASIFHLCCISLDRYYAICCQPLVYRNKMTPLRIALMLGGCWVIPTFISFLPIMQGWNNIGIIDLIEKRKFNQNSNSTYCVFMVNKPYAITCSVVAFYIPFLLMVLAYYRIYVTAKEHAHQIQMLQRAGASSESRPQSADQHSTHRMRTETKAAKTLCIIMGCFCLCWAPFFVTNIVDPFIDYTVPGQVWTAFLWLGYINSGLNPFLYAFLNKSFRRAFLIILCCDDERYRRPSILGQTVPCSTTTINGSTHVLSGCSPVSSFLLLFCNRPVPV
Chain of 5-HT2B (agonist) (P41595 whole entry): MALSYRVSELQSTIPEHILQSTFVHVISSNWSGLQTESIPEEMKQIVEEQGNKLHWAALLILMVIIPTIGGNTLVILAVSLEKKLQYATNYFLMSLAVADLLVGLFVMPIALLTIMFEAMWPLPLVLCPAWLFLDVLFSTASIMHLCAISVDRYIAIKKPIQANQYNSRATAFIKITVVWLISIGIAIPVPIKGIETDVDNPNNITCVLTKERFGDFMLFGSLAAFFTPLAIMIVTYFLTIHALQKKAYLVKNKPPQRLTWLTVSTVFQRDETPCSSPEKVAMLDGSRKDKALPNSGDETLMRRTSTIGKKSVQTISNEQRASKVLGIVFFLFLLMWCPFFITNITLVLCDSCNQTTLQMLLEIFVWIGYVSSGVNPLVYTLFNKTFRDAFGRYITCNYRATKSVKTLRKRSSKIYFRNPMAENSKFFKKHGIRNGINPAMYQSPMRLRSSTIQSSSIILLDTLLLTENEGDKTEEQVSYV
Chain of 5-HT2A (agonist) (P28223 whole entry): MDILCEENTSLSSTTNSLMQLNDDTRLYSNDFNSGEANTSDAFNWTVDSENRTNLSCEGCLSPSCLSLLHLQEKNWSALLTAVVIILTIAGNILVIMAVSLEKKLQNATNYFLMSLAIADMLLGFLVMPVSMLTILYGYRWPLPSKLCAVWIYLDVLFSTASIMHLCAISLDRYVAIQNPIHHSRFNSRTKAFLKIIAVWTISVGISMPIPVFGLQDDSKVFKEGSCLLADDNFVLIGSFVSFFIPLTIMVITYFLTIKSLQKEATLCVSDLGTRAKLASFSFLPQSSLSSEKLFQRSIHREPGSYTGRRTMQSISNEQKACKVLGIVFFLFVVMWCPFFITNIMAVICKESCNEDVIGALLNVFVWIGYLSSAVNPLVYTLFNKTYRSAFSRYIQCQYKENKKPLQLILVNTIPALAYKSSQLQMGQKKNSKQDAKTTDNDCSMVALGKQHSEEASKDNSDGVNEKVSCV
Chain of 5-HT3 (P46098 24-478): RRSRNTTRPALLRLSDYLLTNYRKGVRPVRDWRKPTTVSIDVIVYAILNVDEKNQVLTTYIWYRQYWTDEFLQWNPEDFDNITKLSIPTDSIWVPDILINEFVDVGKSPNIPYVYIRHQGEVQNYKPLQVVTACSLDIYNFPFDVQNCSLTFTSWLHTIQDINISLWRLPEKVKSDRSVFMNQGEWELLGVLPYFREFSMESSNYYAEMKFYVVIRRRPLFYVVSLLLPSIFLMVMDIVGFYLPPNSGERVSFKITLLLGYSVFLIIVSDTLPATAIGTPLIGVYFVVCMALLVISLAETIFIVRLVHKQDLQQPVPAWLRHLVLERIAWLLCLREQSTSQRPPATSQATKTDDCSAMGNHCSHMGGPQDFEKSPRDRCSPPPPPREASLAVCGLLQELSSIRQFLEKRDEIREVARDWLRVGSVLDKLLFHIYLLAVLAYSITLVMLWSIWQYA
Chain of 5-HT5A (P47898 whole entry): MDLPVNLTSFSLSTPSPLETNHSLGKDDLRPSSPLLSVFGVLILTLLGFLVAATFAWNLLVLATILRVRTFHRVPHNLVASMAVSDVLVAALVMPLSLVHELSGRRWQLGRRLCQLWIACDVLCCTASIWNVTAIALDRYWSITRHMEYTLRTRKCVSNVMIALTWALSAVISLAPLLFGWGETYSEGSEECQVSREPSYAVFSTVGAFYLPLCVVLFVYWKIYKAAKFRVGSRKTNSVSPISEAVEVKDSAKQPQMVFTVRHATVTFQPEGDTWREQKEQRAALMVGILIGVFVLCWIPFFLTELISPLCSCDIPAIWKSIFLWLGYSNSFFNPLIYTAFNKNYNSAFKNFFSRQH
Chain of 5-HT1A (P08908 whole entry): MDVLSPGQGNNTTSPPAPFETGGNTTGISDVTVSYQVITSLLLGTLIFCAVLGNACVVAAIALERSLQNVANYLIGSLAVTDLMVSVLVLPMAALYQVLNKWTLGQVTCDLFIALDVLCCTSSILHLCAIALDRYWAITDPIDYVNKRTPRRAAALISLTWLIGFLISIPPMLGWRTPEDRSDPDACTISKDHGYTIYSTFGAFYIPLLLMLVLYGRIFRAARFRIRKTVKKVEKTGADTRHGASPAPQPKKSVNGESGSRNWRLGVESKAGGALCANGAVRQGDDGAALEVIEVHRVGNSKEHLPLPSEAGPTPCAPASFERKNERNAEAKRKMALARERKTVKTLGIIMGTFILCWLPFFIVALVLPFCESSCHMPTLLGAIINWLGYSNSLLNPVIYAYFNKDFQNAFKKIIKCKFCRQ

IC50 (adrenergic receptors β): 100 µM
antagonistic activity (human 5-HT2C receptor; 10 μM): 18%
agonistic activity (human 5-HT2C receptor; 3.10^−5 M (plateau)): 44%
agonistic activity (human 5-HT2C receptor; 10^−4 M (plateau)): 42%
IC50 (human 5-HT2C receptor; agonistic activity, [35S]GTPγS, CHO cells, read-out: IC50 (partial agonist for the 5-HT2C receptor)): 1.5 µM
IC50 (adrenergic receptors α1): 40 µM
IC50 (adrenergic receptors α2): 70 µM
IC50 (muscarinic receptors): 99 µM
IC50 (5-HT4e): 4.7 µM
Ki (5-HT4e; Cheng Prusoff): 1.6 µM
inhibition of the specific binding of the control (5-HT5A): 1%
IC50 (5-HT2B (agonist)): 1 µM
Ki (5-HT2B (agonist); Cheng Prusoff): 0.98 µM
IC50 (5-HT2A (agonist)): 1 µM
Ki (5-HT2A (agonist); Cheng Prusoff): 0.62 µM
IC50 (5-HT7): 7.2 µM
Ki (5-HT7; Cheng Prusoff): 2.6 µM
inhibition of the specific binding of the control (5-HT1A): 14%
IC50 (5-HT2C (agonist)): 0.25 µM
Ki (5-HT2C (agonist); Cheng Prusoff): 0.2 µM
IC50 (5-HT3): 1.4 µM
Ki (5-HT3; Cheng Prusoff): 0.72 µM
SMILES: c1ccc2cc(COC3CCNCC3)ccc2c1 [Compound A, 4-[(2-naphthalenyl)-methoxy]-piperidine]
antagonistic activity (human 5-HT2C receptor; between 1 nM and 1 μM): Without any significant antagonistic activity
IC50 NE/HT ratio [1]: 89
IC50 DA/HT ratio [2]: 188
effect on EMG-SAS (electromyographic activity of the striated anal sphincter) [3, 6]: did not induce any significant effect
effect on vesical capacity (VC) [3, 6]: did not induce any significant effect
increase in EMG-SAS, percentage of the stabilization period ([3]; 3 mg/kg intravenously, mean±SEM, n=7, p=0.018): 1,521.90±966.61%
increase in VC, percentage of the stabilization period ([3]; 3 mg/kg intravenously, mean±SEM, n=8): 123.29±11.62%
increase in VC, percentage of variation of the basal value ([4]; 20 minutes after administration): 46.25±16.40%
increase in VC, percentage of variation of the basal value ([4]; 40 minutes after administration): 44.61±17.51%
increase in VC, percentage of variation of the basal value ([4]; 60 minutes after administration): 60.34±17.8%
inhibition of the contractile response of detrusor muscle strips to electric stimulation (human detrusor muscle; 10 μM): 20.1±4.7%
inhibition of the contractile response of detrusor muscle strips to electric stimulation (human detrusor muscle; 30 μM): 41.7±5.2%
inhibition of the contractile response of detrusor muscle strips to electric stimulation (human detrusor muscle; 100 μM): 80.8±6.8%
maximum response of 5-HT, % of the reference contraction induced by 80 mM KCl [5]: 18.7±3.2%
